Measured values as given in patent publication US10377791B2, “Therapeutically active estratrienthiazole derivatives as inhibitors of 17 B-hydroxysteroid dehydrogenase, type 1” (FORENDO PHARMA LTD, priority 2013, dated 2019).

Key:
[1] = target: T1, recombinant human 17β-HSD1 (Homo sapiens, UniProt P14061); assay: Inhibition of recombinant human 17β-HSD1; assay type: biochemical; details: inhibitor at 1 μM; 30 nM estrone, 1 mM NADPH, 30 min at RT; read-out: 17β-HDS1 Inhibition % at 1 μM
T1 construct: made in house; host or cells: Sd9 (Sf9) insect cells, baculovirus (Bac to Bac Expression System)
T1 sequence (P14061 1-328): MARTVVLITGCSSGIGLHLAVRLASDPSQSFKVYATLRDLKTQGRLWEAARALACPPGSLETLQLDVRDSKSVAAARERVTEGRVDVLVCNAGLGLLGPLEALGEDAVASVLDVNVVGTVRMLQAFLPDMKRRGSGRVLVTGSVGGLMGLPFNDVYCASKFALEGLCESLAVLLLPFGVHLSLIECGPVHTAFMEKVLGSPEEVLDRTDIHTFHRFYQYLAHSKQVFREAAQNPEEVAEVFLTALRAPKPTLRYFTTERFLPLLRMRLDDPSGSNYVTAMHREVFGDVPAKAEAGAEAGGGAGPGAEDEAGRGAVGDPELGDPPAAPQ
Experimental: Recombinant baculovirus was generated by the “Bac to Bac Expression System” (Invitrogen). Recombinant bacmid was transfected to Sd9 insect cells using “Cellfectin Reagent” (Invitrogen). 60 h later cells were harvested; the microsomal fraction was isolated as described by Puranen, T. J., Poutanen, M. H., Peltoketo, H. E., Vihko, P. T. and Vihko, R. K. (1994) Site-directed mutagenesis of the putative active site of human 17 β-hydroxysteroid dehydrogenase type 1. Biochem. J. 304: 289-293. Aliquots were stored frozen until determination of enzymatic activity.
Recombinant protein (1 μg/ml) was incubated in 20 mM KH2PO4 pH 7.4 with 30 nM estrone (including 800 000 cpm/ml of ^3H-estrone) and 1 mM NADPH for 30 min at RT, in the presence of the potential inhibitor at concentrations 1 μM or 0.1 μM. Inhibitor stock solutions were prepared in DMSO. Final concentration of DMSO was adjusted to 1% in all samples. The enzyme reaction was stopped by addition of 10% trichloroacetic acid (final concentration). Samples were centrifuged in a microtiter plate at 4000 rpm for 10 min. Supernatants were applied to reverse phase HPLC on a Waters Symmetry C18 column, equipped with a Waters Sentry Guard column. Isocratic HPLC runs were performed at RT at a flow rate of 1 ml/min in acetonitrile:water 48:52 as running solvent. Radioactivity was monitored in the eluate by a Packard Flow Scintillation Analyzer. Total radioactivity for estrone and estradiol were determined in each sample and percent conversion of estrone to estradiol was calculated according to the following formula:
(§1) [formula] Percent inhibition was calculated flowingly: % inhibition=100−% conversion

[2] = target: T2, recombinant human 17β-HSD2 (Homo sapiens, UniProt P37059); assay: Inhibition of recombinant human 17β-HSD2; assay type: biochemical; details: inhibitor at 1 μM; 50 nM estradiol, 1 mM NADH, 30 min at RT; read-out: 17β-HSD2 Inhibition % at 1 μM
T2 construct: made in house; host or cells: Sd9 (Sf9) insect cells, baculovirus (Bac to Bac Expression System)
T2 sequence (P37059 1-387): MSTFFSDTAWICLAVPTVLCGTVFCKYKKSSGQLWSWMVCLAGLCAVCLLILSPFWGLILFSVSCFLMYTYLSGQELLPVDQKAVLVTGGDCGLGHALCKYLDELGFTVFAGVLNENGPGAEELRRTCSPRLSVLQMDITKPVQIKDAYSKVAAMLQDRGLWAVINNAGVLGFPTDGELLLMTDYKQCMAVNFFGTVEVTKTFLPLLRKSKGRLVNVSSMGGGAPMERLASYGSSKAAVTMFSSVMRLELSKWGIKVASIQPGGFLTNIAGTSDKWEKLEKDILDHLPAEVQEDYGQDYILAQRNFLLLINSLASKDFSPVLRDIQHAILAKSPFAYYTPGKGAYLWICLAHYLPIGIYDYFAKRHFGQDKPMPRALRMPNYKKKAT
Experimental: Similarly to 17β-HSD1 the Recombinant baculovirus was generated by the “Bac to Bac Expression System” (Invitrogen). Recombinant bacmid was transfected to Sd9 insect cells using “Cellfectin Reagent” (Invitrogen). 60 h later cells were harvested and supernatant were fractionated by the following protocol: • cells were dissolved into 40 ml of A-buffer (40 mM TRIS, pH8.0, 20% glycerol, 20 μM NAD, 0.4 mM PMSF, 150 mM NaCl, 0.5% dodecyl-β-maltoside+protease inhibitor cocktail) • cells were sonicated • lysate was incubated on ice for 15 min • lysate was centrifuged 5000 rpm 15 min, +4° C. • centrifugation of the supernatant 180 000 g 30 min, +4° C. • pellet was dissolved into 8 ml of A-buffer • not resuspended material was removed by centrifugation 5000 rpm 15 min, +4° C. • the clear supernatant was divided into 100 μl aliquots and were stored frozen until determination of enzymatic activity.
The amount of 17β-HSD2 was analysed by immunoblotting and total protein concentration of each extract batch was determined.
Recombinant protein (4 μg/ml) was incubated in 20 mM KH2PO4 pH 8.5 with 50 nM estradiol (including 800 000 cpm/ml of ^3H-estradiol) and 1 mM NADH for 30 min at RT, in the presence of the potential inhibitor at concentrations 1 μM or 0.1 μM. Inhibitor stock solutions were prepared in DMSO. Final concentration of DMSO was adjusted to 1% in all samples. The enzyme reaction was stopped by addition of 10% trichloroacetic acid (final concentration). Samples were centrifuged in a microtiter plate at 4000 rpm for 10 min. Supernatants were applied to reverse phase HPLC on a Waters Symmetry C18 column, equipped with a Waters Sentry Guard column. Isocratic HPLC runs were performed at RT at a flow rate of 1 ml/min in acetonitrile:water 48:52 as running solvent. Radioactivity was monitored in the eluate by a Packard Flow Scintillation Analyzer. Total radioactivity for estrone and estradiol were determined in each sample and percent conversion of estradiol to estrone was calculated according to the following formula:
as §1

| SMILES | inhibition at 1 µM [1] | inhibition at 1 µM [2] |
| --- | --- | --- |
| Cc1cnc(NC(=O)CC[C@@H]2CC(=O)[C@@]3(C)CCC4c5cc6[nH]c(=O)oc6cc5CCC4C23)s1 (stereo partly drawn) [Compound 50, 3-((3R,12aS)-12a-methyl-1,8-dioxo-2,3,3a,3b,4,5,8,9,10b,11,12,12a-dodecahydro-1H-cyclopenta[7,8]phenanthro[3,2-d]oxazol-3-yl)-N-(5-methylthiazol-2-yl)propanamide] | 91% | 40% |
| COc1ccc2c(c1)CCC1C2CC[C@]2(C)C(=O)C(O)[C@@H](CCC(=O)Nc3ncc(C)s3)C12 (stereo partly drawn) [Compound 93, 3-((13S,15S)-16-hydroxy-3-methoxy-13-methyl-17-oxo-7,8,9,11,12,13,14,15,16,17-decahydro-6H-cyclopenta[a]phenanthren-15-yl)-N-(5-methylthiazol-2-yl)propanamide] | 54% | 3% |
| CC(=O)Oc1ccc2c(c1)CCC1C2CC[C@]2(C)C(=O)C[C@@H](CCC(=O)Nc3ncc(C)s3)C12 (stereo partly drawn) [Compound 1, Acetic acid (13S,15R)-13-methyl-15-[2-(5-methylthiazol-2-ylcarbamoyl)-ethyl]-17-oxo-7,8,9,11,12,13,14,15,16,17-decahydro-6H-cyclopenta[a]phenanthren-3-yl ester] | 92% | 13% |
| Cc1cnc(NC(=O)CC[C@@H]2CC(=O)[C@@]3(C)CCC4c5cc(I)c(O)c(I)c5CCC4C23)s1 (stereo partly drawn) [Compound 53, 3-((13S,15R)-3-hydroxy-2,4-diiodo-13-methyl-17-oxo-7,8,9,11,12,13,14,15,16,17-decahydro-6H-cyclopenta[a]phenanthren-15-yl)-N-(5-methylthiazol-2-yl)propanamide] | 94% | 5% |
| Cc1cnc(NC(=O)CC[C@@H]2CC(=O)[C@@]3(C)CCC4c5cc(C(C)(C)C)c(O)cc5CCC4C23)s1 (stereo partly drawn) [Compound 31, 3-((13S,15R)-2-(tert-butyl)-3-hydroxy-13-methyl-17-oxo-7,8,9,11,12,13,14,15,16,17-decahydro-6H-cyclopenta[a]phenanthren-15-yl)-N-(5-methylthiazol-2-yl)propanamide] | 87% | 12% |
| COc1ccc2c(c1)CCC1C2CC[C@]2(C)C(=O)C[C@@H](CCC(=O)Nc3ncc(C)s3)C12 (stereo partly drawn) [Compound X, 3-((13S,15R)-3-Methoxy-13-methyl-17-oxo-7,8,9,11,12,13,14,15,16,17-decahydro-6H-cyclopenta[a]phenanthren-15-yl)-N-(5-methylthiazol-2-yl)propanamide, reference compound] | 96% | 3% |
| Cc1cnc(NC(=O)CC[C@@H]2CC(=O)[C@@]3(C)CCC4c5cc(O)c(O)cc5CCC4C23)s1 (stereo partly drawn) [Compound 68, 3-((13S,15R)-2,3-dihydroxy-13-methyl-17-oxo-7,8,9,11,12,13,14,15,16,17-decahydro-6H-cyclopenta[a]phenanthren-15-yl)-N-(5-methylthiazol-2-yl)propanamide] | 88% | 3% |
| COc1ccc2c(c1)CCC1C2CC[C@]2(C)C(=O)/C(=C/O)[C@@H](CCC(=O)Nc3ncc(C)s3)C12 (stereo partly drawn) [Compound 97, 3-{(13S,15S)-16-[1-Hydroxy-methylidene]-3-methoxy-13-methyl-17-oxo-7,8,9,11,12,13,14,15,16,17-decahydro-6H-cyclopenta[a]phenanthren-15-yl}-N-(5-methylthiazol-2-yl)propanamide] | 92% | 11% |
| Cc1cnc(NC(=O)CC[C@@H]2CC(=O)[C@@]3(C)CCC4c5cc(Cl)c(O)cc5CCC4C23)s1 (stereo partly drawn) [Compound 64, 3-((13S,15R)-2-chloro-3-hydroxy-13-methyl-17-oxo-7,8,9,11,12,13,14,15,16,17-decahydro-6H-cyclopenta[a]phenanthren-15-yl)-N-(5-methylthiazol-2-yl)propanamide] | 98% | 5% |
| Cc1cnc(NC(=O)CC[C@@H]2CC(=O)[C@@]3(C)CCC4c5cc(C#N)c(O)cc5CCC4C23)s1 (stereo partly drawn) [Compound 91, 3-((13S,15R)-2-cyano-3-hydroxy-13-methyl-17-oxo-7,8,9,11,12,13,14,15,16,17-decahydro-6H-cyclopenta[a]phenanthren-15-yl)-N-(5-methylthiazol-2-yl)propanamide] | 97% | 1% |
| Cc1cnc(NC(=O)CC[C@@H]2CC(=O)[C@@]3(C)CCC4c5cc(N)c(O)cc5CCC4C23)s1 (stereo partly drawn) [Compound 37, 3-((13S,15R)-2-amino-3-hydroxy-13-methyl-17-oxo-7,8,9,11,12,13,14,15,16,17-decahydro-6H-cyclopenta[a]phenanthren-15-yl)-N-(5-methylthiazol-2-yl)propanamide] | 88% | 4% |
| Cc1cnc(NC(=O)CC[C@@H]2CC(=O)[C@@]3(C)CCC4c5ccc(OS(=O)(=O)C(F)(F)F)cc5CCC4C23)s1 (stereo partly drawn) [Compound 79, (13S,15R)-13-methyl-15-(3-((5-methylthiazol-2-yl)amino)-3-oxopropyl)-17-oxo-7,8,9,11,12,13,14,15,16,17-decahydro-6H-cyclopenta[a]phenanthren-3-yl trifluoromethanesulfonate] | 72% | 0% |
| Cc1cnc(NC(=O)CC[C@@H]2CC(=O)[C@@]3(C)CCC4c5cc(O)ccc5CCC4C23)s1 (stereo partly drawn) [Compound 88, 3-((13S,15R)-2-hydroxy-13-methyl-17-oxo-7,8,9,11,12,13,14,15,16,17-decahydro-6H-cyclopenta[a]phenanthren-15-yl)-N-(5-methylthiazol-2-yl)propanamide] | 93% | 1% |
| Cc1cnc(NC(=O)CC[C@@H]2CC(=O)[C@@]3(C)CCC4c5cccc(N)c5CCC4C23)s1 (stereo partly drawn) [Compound 89, 3-((13S,15R)-4-amino-13-methyl-17-oxo-7,8,9,11,12,13,14,15,16,17-decahydro-6H-cyclopenta[a]phenanthren-15-yl)-N-(5-methylthiazol-2-yl)propanamide] | 71% | 0% |
| Cc1cnc(NC(=O)CC[C@@H]2CC(=O)[C@@]3(C)CCC4c5cc(Br)c(O)cc5CCC4C23)s1 (stereo partly drawn) [Compound 56, 3-((13S,15R)-2-bromo-3-hydroxy-13-methyl-17-oxo-7,8,9,11,12,13,14,15,16,17-decahydro-6H-cyclopenta[a]phenanthren-15-yl)-N-(5-methylthiazol-2-yl)propanamide] | 93% | 18% |
